Assay results as given in patent publication US8952048B2, “Treatment of immune disorders using kainate receptor antagonists” (Virginia Commonwealth University, priority 2010, dated 2015).
Entries after “also recorded” stand apart in the source; their conditions may differ.

Key:
[1] = tested on: RPMI8866 cells; test: Soluble CD23 release assay in RPMI8866 cells; type: cell-based, human; details: for effect on increase in sCD23 release caused by KAR stimulation: 50 μM antagonist 1 hr prior to 5 mM KA or Glu; for effect on baseline sCD23 release: 50 μM antagonist, no KA or Glu
Description: For these studies, the CD23+ human B cell line RPMI8866 was grown in the presence or absence of 5 mM KA or Glu for 24 hours in CDMEM10 at a concentration of 1×10^6 cells/mL. For antagonist studies, prior to the addition of KA or Glu cells were pre-treated with 50 μM vehicle (DMSO), NBQX, NS 102, or TPM for one hour. After incubation, cell free supernatants were harvested and sCD23 levels determined by ELISA. […] Forty-eight hours later cell free supernatants were harvested for ELISA.
(§1) To determine the effect of ADAM10 inhibition on Ig production, purified human B cells were cultured with 10 ng/mL IL-4, 1 μg/mL anti-CD40, and 200 ng/mL IL-21 in complete culture media in the presence of DMSO as vehicle control or 10 μM ADAM10 specific inhibitor. Five days later, cell free supernatants were harvested for soluble CD23 release and fourteen days later, cell free supernatants were analyzed for Ig production. ELISAs. Human sCD23 ELISA was measured using a standard sandwich ELISA approach, using a mouse anti-CD23 (Clone BU38) coating antibody and sheep anti-CD23 (both from The Binding Site Birmingham, UK). Detection is performed with a goat anti-sheep IgG tagged with HRP (Southern Biotech Birmingham, Ala.). Determination of human IgE levels utilized a monoclonal mouse anti-human IgE antibody (clone 4.15) as a capture. Samples and standards were detected using a rabbit anti-human IgE-HRP (Southern Biotech) diluted in PBS/10% FBS. Human IgG or IgM were detected using a goat anti-human IgG or IgM followed by detection with a goat anti-human IgG or IgM tagged with HRP (All from Southern Biotech). Standards for the IgG and IgM ELISAs were purchased from Sigma. IgE standards were purified from JW8 hybridoma cells as previously described (Caven et al., 2005a). All assays utilized TMB substrate (BD Pharmingen San Diego, Calif.) and the reactions were stopped with 0.18M H2SO4. Plates are read at a wavelength of 450 nm on a SpectraMax 250 and data analyzed using SOFTmax PRO 3.1.2 software (Molecular Devices, Los Angeles, Calif.).

[2] = tested on: primary B cells; test: ADAM10 mRNA by qPCR in primary B cells; type: cell-based, human; details: 5 mM KA or glutamate, 30 minutes; normalized to beta-actin
Description: Alternatively when whole PBMC was used, buffy coats were obtained from the Virginia Blood Service Center (Richmond, Va.). PBMC were isolated by Ficoll gradient density centrifugation. All human studies research was performed in accordance to the Virginia Commonwealth University Institution Review Board per approved protocols. RT-PCR and qPCR. RNA was isolated via standard Trizol (Invitrogen) purification protocol and the Access Quick RT-PCR kit (Promega, Madison Wis.) was used with gene specific primers to examine for the presence of kainate receptor subunits and their transcript variants. Primers were designed using VectorNTI software (Invitrogen). Ready-made Primers® for G3PDH and all custom made primers for all sequences were synthesized by Integrated DNA Technologies (Coralville, Iowa). qPCR experiments were performed by the nucleic acid core in the ABI Prism® 7900 Sequence Detection System (Applied Biosystems, Foster City, Calif.) using the TaqMan® One Step PCR Master Mix Reagents Kit. All the samples were tested in triplicate using the following conditions: 48° C./30 min; 95° C./10 min; and 40 cycles of 95° C./15 sec and 60° C./1 min. The cycle threshold was determined to provide the optimal standard curve values (0.98 to 1.0). The probes and primers for ADAM10 (#Hs00153853_ml) were purchased from ABI. […] Relative ADAM10 mRNA is determined as a relative ratio based upon beta-actin.

[3] = tested on: primary human B cells; test: Immunoglobulin production by primary human B cells (ELISA, 14 days); type: cell-based; details: for amount of IgE produced / effect on glutamate enhancement of IgG production: 14 days; for effect on glutamate enhancement of IgG production / effect on glutamate mediated increase in IgE production: 10 μM antagonist before culture; for effect on glutamate enhancement of IgG production: 5 mM glutamate
Description: (§2) Primary B cells or PBMC were cultured in the presence of 10 ng/mL IL-4 and 1 μg/mL anti-CD40 in complete culture media in the presence or absence of 5 mM KA or 5 mM Glu. When indicated, 200 ng/mL IL-21 was also added. For antagonism studies, prior to culture primary cells were treated with 10 μM vehicle (DMSO), NBQX, NS102, or TPM. After 14 days of culture, cell free supernatants were analyzed via ELISA for Ig levels. As cells are grown at various densities, line graphs represent Ig production as compared to cell density.
as §1

[4] = tested on: GluK2 containing KARs; details: Verdoorn et al., 1994; cited from earlier work
[5] = tested on: B cells from SLE patients; test: SLE vs. normal donor B cell activity in the presence of antagonist; type: cell-based, human; details: Example 3, written in present tense
From the text: Peripheral blood from both SLE patients and normal donors is obtained. Presence of KARS: Specific KAR primers and Western protocols are used to analyze mRNA and protein expression, respectively, in cultured B cells from SLE patients. Flow cytometry is used to confirm cell surface expression. Comparison of the expression of KARs on B cells from normal vs. SLE patients, the presence of KARs on SLE patient B cells is confirmed.
B cells isolated from both donor populations are stimulated with anti-CD40 in the presence or absence of KAR activation to induce cellular proliferation. Differences among both groups both with and without KAR stimulation are determined. Proliferation is measured via H^3 thymidine incorporation as well as cell cycle divisions via CFSE dilution analysis.
B cells isolated from both populations are put in culture in the presence of IL-4 and anti-CD40, the two signals required for Ig production, in the presence or absence of KAR activation. After 14 days of culture, cell free supernatants are analyzed for total IgM, IgG, and IgE via ELISA. Furthermore, specificity of human antibodies is determined by employing commercially available human anti-nuclear antibody (ANA), anti-snRNP/Smith, and anti-dsDNA ELISA kits.
SLE vs. normal donor B cell activity is compared in the presence of at least one antagonist such as NS 102.

[6] = tested on: primary human B cells; test: [3H]-thymidine proliferation assay, primary B cells; type: cell-based
Description: (§3) When PBMC is used the cell concentration is 100,000 cells/well. […] After 96 hours of growth, a 24 hr pulse [H^3]-thymidine (Perkin Elmer) was used. Plates were then harvested using a Filtermate cell harvester onto GFC plates. Assays were read using a Topcount Plate Counter (Perkin Elmer, Waltham, Mass.).

[7] = tested on: Human PBMC; test: Immunoglobulin production in PBMC cultures (ELISA, 14 days); type: cell-based
Description: as §2, §1

[8] = tested on: B cells from KAR KO mice; test: In vitro culture of B cells from KAR KO mice with glutamate; type: cell-based, mouse; details: in the presence of glutamate; data not shown
[9] = tested on: Human PBMC; test: Proliferation assay, PBMC; type: cell-based; details: addition of glutamate
Description: as §3

[10] = IL-4, anti-CD40, IL-21, 5 mM glutamate, CDMEM-10, 14 days
[11] = 10 μM pretreatment 1 hour before glutamate
[12] = anti-CD40, IL-4, IL-21, glutamate

With `C=C(C)[C@H]1CN[C@H](C(=O)O)[C@H]1CC(=O)O` [KA, kainic acid] the “amount of sCD23 released following KAR activation” value ([1]; 5 mM KA or Glu, 24 hours, CDMEM10) was “significant elevation”, the “ADAM10 mRNA levels” value [2] was “significant increase” and the “amount of IgE produced” value ([3]; IL-4 and anti-CD40, CRPMI-10, 5 mM KA or Glu) was “strong and statistically significant increase”.
With `NS(=O)(=O)c1cccc2c1c([N+](=O)[O-])cc1nc(O)c(O)nc12` [NBQX] the “effect on increase in sCD23 release caused by KAR stimulation” value (from here on “effect on increase”) ([1]; 24 hours) was “no change is observed”, the “effect on baseline sCD23 release” value [1] was “none of the antagonists have any effect” and the “effect on glutamate enhancement of IgG production” value [3] was “unaffected”. The “effect on glutamate mediated increase in IgE production” value (“effect on glutamate mediated increase” for short) [3, 10] was “no effect”.
In the case of `O=C1Nc2c(cc([N+](=O)[O-])c3c2CCCC3)C1=NO` [NS102, 5-Nitro-6,7,8,9-tetrahydro-1H-benzo[g]indole-2,3-dione 3-oxime], the “selectivity of KAR antagonism” value [4] is given as “selectively antagonizes”, the “B cell hyperactivity in SLE patients” value [5] is given as “overcomes the B cell hyperactivity” and the “effect on increase” value ([1]; 24 hours) is given as “could prevent the significant increase”. The “effect on baseline sCD23 release” value [1] was “none of the antagonists have any effect”, the “effect on glutamate-induced increase in proliferation” value ([6]; 10 μM pretreatment 1 hour before 5 mM glutamate) was “prevented” and the “effect on glutamate enhancement of IgG production” value [3] was “blocked”. The “effect on glutamate mediated increase” value [3, 10] was “almost completely blocks”, the “effect on glutamate mediated increase” value ([3]; IL-4, anti-CD40, IL-21, 5 mM glutamate, CDMEM-10, 14 days, listed as NS-102) was “dramatically reduced” and the “effect on glutamate increase in IgE production” value [7, 11] was “strongly blocked”. For the same molecule, the “effect on glutamate increase in IgG production” value [7, 11] was “strongly blocked”.
With `CC1(C)O[C@@H]2[C@@H](CO[C@@]3(COS(N)(=O)=O)OC(C)(C)O[C@@H]23)O1` [TPM, topiramate] the “effect on increase” value ([1]; 24 hours) was “no change is observed”, the “effect on baseline sCD23 release” value [1] was “none of the antagonists have any effect” and the “effect on glutamate mediated increase” value [3, 10] was “did not influence IgE production”.
In the case of `N[C@@H](CCC(=O)O)C(=O)O` [glutamate, L-glutamic acid], the Ig synthesis [8] is reported as “did not show any enhanced”, the proliferation [8] is reported as “did not show any enhanced” and the sCD23 release [8] is reported as “did not show any enhanced”. The “ADAM10 mRNA levels” value [2] was “significant increase”, the cell proliferation ([6]; 5 mM glutamate, IL-4, anti-CD40, IL-21, 96 hours plus 24 hr pulse) was “significant increase in proliferation” and the “total IgG production” value [3, 10] was “Enhancement in IgG production was seen in all but the highest density cultures”. For the same molecule, the “total IgM levels” value [3, 10] was “not influenced”, the “amount of IgE produced” value ([3]; IL-4, anti-CD40 plus IL-21, 5 mM glutamate) was “much more IgE; also recorded: pronounced increase” and the IgE synthesis [7, 12] was “very strong enhancement”. The IgM production [7, 12] was “not significantly influenced”, the “total IgG production” value [7, 12] was “IgG enhancement was seen” and the proliferation [9] was “also affected”.
